Experiment [1] addresses interaction between CD36 and fAβ1-42 (Homo sapiens, UniProt P16671). The following applies: cell-based assay, previously demonstrated (17); cited from earlier work.
The target of experiment [2] is T1, interaction between rCD36 and fAβ1-42 (Homo sapiens, UniProt P16671).
T1 construct: the extracellular domain of the CD36 protein, corresponding to Gly30-Asn439; 6xHis (C); made in house; host or cells: Escherichia coli BL21 (DE3), pET30-CD36; purified by IMAC under denaturing conditions and renatured in PBS
In words: colorimetric rCD36-fAβ1-42 interaction assay on polystyrene plate. In kind it is binding. Conditions: added 30 minutes prior to fAβ1-42 and maintained, p<0.05 by t-test, FIG. 7. The text has this: The invention consists in the development of a rapid colorimetric procedure that through the adhesion of the recombinant protein CD36 to a polystyrene plate enables the evaluation of molecules that can inhibit the interaction of such protein and the amyloid beta. The process or method of this invention is based on the interaction of A) recombinant extracellular portion of the CD36 protein with B) the Aβ peptide in its fibril state. […] The presence of compounds that inhibit the ligand-receptor interaction in the reaction produces a reduction of the colorimetric signal generated after the addition of the substrate (FIG. 1). The fibrillar Aβ is prepared on the basis of the synthetic peptide incubated at 37° C., in distilled water. The fibrils are prepared by controlling the polymerization of the monomers, which is monitored through the Thioflavin T fluorescent assay (11). […]
Considering that the vast majority of the natural or synthetic compounds that will be tested in the screening phase are diluted in Dimethyl Sulfoxide (DMSO), the tolerance of the assay to this solvent was evaluated. First, the assay sensitivity was evaluated at a concentration of 0.1% DMSO in conjugated serial dilutions where concentrations of rCD36 and fAβ1-42 varied, similar to the description given in example 2 (FIG. 3). […] Later, the tolerance of the assay was evaluated at different doses of DMSO. […]

The subject of experiment [3] is microglial cell line. Conditions: previously demonstrated (17); cited from earlier work.

T1 sequence (P16671 30-439): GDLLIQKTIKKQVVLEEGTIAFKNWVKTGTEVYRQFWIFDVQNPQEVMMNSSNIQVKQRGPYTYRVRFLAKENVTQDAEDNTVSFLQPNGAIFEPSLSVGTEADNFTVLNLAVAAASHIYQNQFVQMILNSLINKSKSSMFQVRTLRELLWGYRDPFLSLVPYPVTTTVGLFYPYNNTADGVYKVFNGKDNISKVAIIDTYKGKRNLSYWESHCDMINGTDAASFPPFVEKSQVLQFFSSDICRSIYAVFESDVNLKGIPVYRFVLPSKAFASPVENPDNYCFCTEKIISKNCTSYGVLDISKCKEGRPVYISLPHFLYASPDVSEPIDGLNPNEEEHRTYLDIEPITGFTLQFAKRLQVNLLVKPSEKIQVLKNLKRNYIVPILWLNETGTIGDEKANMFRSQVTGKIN
Chain of interaction between CD36 and fAβ1-42 (P16671 whole entry): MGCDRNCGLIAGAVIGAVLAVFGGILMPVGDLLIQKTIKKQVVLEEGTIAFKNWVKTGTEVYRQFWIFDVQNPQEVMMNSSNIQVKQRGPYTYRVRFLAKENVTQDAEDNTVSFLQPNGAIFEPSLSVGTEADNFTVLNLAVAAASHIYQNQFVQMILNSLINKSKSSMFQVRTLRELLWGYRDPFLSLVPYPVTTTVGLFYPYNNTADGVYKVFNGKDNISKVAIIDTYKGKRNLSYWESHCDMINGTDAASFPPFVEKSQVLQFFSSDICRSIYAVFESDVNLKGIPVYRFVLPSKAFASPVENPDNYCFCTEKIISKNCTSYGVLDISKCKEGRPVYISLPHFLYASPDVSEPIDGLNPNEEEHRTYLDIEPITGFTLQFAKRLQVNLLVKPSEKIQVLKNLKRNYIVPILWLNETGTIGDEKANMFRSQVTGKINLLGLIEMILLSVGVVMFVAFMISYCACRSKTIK

For the molecule `C[C@H]1[C@H](C)CC[C@]2(C(=O)O)CC[C@]3(C)C(=CC[C@@H]4[C@@]5(C)CC[C@H](O)C(C)(C)[C@@H]5CC[C@]43C)[C@H]12` [ursolic acid], the “inhibition of the interaction between CD36 and fAβ1-42” value in experiment [1] is reported as “inhibits such interaction”. In addition, the “decrease of the interaction between rCD36 and fAβ1-42” value in experiment [2] (ursolic acid 100 μM) and in experiment [2] (ursolic acid 200 μM) was “significant decrease” each time. The “effect on Aβ-induced nitric oxide production” value in experiment [3] is on record as “this inhibition impacts on the Aβ-induced nitric oxide production”.

The record behind these values is patent publication US20170363646A1, “METHOD FOR DETECTING MOLECULES THAT INHIBIT THE INTERACTION OF CD36 PROTEIN WITH AMYLOID BETA” (Instituto de Investigaciones Cientificas y Servicios de …, priority 2015, published 2017).
